According to patent publication US8557233B2, “Probiotic bifidobacterium strains” (Alimentary Heath Limited, priority 2007, dated 2013):

System: B. longum AH1206
Experiment: Minimum inhibitory concentration (MIC) of antibiotics
Assay type: cell-based, Bifidobacterium longum
Details: against B. longum AH1206
Protocol: Antibiotic sensitivity profiles of the B. longum strain was determined using the ‘disc susceptibility’ assay. Cultures were grown up in the appropriate broth medium for 24-48 h spread-plated (100 μl) onto agar media and discs containing known concentrations of the antibiotics were placed onto the agar. Strains were examined for antibiotic sensitivity after 1-2 days incubation at 37° C. under anaerobic conditions. Strains were considered sensitive if zones of inhibition of 1 mm or greater were seen. The minimum inhibitory concentration (MIC) for each antibiotic was independently assessed.

SMILES | minimum inhibitory concentration (MIC)
CCC[C@@H]1C[C@@H](C(=O)N[C@@H]([C@H]2O[C@H](SC)[C@H](O)[C@@H](O)[C@H]2O)[C@H](C)Cl)N(C)C1 [clindamycin] | 0.32
Cc1ncc([N+](=O)[O-])n1CCO [metronidazole] | 0.38
CN[C@H](CC(C)C)C(=O)N[C@H]1C(=O)N[C@@H](CC(N)=O)C(=O)N[C@H]2C(=O)N[C@H]3C(=O)N[C@H](C(=O)N[C@H](C(=O)O)c4cc(O)cc(O)c4-c4cc3ccc4O)[C@H](O)c3ccc(c(Cl)c3)Oc3cc2cc(c3O[C@@H]2O[C@H](CO)[C@@H](O)[C@H](O)[C@H]2O[C@H]2C[C@](C)(N)[C@H](O)[C@H](C)O2)Oc2ccc(cc2Cl)[C@H]1O [vancomycin] | 0.75
